The text below walks through data of patent US9783536B2, “Nitrogen-containing heterocyclic compound or salt thereof” (FUJIFILM Corporation, priority 2013, dated 2017).

A value given as a limit tells only on which side of the number the result lay.

Assay type in all cases: biochemical
For one experiment, the target named is T1, human PI3Kα protein (Homo sapiens, UniProt P42336).
T1 construct: purchased Carna Biosciences, Inc; host or cells: baculovirus expression system
In words: PI3Kα enzyme assay (ADP-Glo). The note with it: read-out: PI3Kα enzyme inhibitory activity. Summed up:
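Biotinylated human PI3Kα (baculovirus-expressed, 4.5 nmol/L) pre-incubated 15 min with compound in Tris-HCl pH 7.5, MgCl2, BSA; reaction 60 min at 25° C with 50 μmol/L PIP2 and 100 μmol/L ATP final. ADP quantified by ADP-Glo luminescence; IC50 calculated.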
In general terms: In ADP-Glo the light output rises with the ADP produced.

Experiment [1] deals with T2, GST fusion human ERK2 protein (Homo sapiens, UniProt P28482).
T2 construct: purchased Carna Biosciences, Inc; host or cells: E. coli expression system
T2 sequence (P28482 whole entry, the tested form may be a part): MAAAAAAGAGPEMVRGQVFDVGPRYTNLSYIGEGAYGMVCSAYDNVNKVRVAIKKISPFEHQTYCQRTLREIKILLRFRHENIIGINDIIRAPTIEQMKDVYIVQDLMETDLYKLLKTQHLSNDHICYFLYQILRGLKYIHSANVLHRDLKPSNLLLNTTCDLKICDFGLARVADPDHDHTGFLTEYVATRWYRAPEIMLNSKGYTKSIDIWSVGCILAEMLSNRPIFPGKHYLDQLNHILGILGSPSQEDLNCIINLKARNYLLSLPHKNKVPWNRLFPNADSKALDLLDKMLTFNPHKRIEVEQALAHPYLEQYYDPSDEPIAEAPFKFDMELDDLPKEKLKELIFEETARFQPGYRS
In words: ERK2 enzyme assay (1). The note with it: ERK2 enzyme assay (1); read-out: ERK2 enzyme inhibitory activity (1). The essentials: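 Enzyme (2.5 nmol/L, E. coli-expressed) preincubated with compound 15 min at room temperature in HEPES/MgCl2/DTT/Brij35 buffer, pH 7.5; reaction with 4.25 μmol/L FL-Peptide 8 and 43.1 μmol/L ATP for 120 min at 25 °C. Phosphorylated peptide fraction quantified by mobility-shift separation after EDTA stop; IC50 calculated.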

Experiment [2] deals with T2, GST fusion human ERK2 protein. Briefly: ERK2 enzyme assay (2). Particulars: ERK2 enzyme assay (2); read-out: ERK2 enzyme inhibitory activity (2). The essentials: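 GST-tagged human ERK2 expressed in E. coli (1.25 nmol/L) was preincubated with compound for 15 min at room temperature in pH 7.5 Hepes buffer with MgCl2, DTT and Brij35. Reaction with FL-Peptide 8 (final 4.25 μmol/L) and ATP (final 1 mmol/L) ran 120 min at 25 °C; EDTA stopped it, and phosphorylated peptide was quantified by mobility-shift separation to derive IC50.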

T1 sequence (P42336 whole entry): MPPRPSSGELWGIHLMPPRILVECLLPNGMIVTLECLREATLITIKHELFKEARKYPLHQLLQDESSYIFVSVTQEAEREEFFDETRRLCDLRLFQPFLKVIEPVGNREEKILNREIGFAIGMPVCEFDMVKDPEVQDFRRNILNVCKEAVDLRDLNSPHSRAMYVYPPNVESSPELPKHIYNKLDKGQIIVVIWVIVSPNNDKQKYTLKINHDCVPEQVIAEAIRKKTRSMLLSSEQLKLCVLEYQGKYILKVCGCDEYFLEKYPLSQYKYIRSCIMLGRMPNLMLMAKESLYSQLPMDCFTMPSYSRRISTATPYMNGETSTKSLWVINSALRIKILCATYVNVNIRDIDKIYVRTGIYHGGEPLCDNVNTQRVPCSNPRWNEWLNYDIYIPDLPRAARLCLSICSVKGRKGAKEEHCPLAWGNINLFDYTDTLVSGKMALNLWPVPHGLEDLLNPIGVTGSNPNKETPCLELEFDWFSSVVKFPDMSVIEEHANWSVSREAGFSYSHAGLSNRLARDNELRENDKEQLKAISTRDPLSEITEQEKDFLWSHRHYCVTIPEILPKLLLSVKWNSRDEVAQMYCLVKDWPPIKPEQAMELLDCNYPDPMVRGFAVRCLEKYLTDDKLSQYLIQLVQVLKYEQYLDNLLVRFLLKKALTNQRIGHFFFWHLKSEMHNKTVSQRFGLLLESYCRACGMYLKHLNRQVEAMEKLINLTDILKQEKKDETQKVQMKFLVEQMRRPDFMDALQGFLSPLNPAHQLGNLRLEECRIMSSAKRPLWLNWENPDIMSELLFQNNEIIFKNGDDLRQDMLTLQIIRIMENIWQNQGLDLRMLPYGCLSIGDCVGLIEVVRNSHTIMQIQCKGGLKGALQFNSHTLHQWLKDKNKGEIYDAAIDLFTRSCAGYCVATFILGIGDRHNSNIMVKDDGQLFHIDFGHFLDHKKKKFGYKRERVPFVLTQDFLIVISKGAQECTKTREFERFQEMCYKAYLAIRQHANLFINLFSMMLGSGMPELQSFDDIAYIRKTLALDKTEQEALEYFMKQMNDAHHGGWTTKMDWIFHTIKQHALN
T1 sequence (P27986 whole entry partner): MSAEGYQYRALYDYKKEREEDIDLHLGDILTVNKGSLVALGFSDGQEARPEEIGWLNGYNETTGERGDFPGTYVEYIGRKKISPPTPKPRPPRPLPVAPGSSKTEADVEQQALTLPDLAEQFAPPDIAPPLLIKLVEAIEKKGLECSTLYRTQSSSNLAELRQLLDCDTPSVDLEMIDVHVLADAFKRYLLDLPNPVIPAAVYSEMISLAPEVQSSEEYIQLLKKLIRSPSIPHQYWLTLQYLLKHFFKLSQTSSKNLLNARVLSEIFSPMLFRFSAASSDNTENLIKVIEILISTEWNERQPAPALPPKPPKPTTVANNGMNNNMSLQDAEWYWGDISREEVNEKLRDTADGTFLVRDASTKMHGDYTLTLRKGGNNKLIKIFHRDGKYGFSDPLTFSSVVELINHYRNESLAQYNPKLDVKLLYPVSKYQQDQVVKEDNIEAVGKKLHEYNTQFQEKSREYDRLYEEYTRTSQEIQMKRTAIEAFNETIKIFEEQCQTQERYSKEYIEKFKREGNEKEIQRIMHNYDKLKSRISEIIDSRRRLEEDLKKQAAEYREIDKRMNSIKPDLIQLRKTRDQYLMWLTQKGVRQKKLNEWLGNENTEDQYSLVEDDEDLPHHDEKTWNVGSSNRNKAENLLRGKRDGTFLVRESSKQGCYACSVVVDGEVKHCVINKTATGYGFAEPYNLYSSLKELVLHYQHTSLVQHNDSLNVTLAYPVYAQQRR

Consider `CC(=O)N1CCC(c2nnc(Nc3ccc4ncc(-c5cnn(C)c5)cc4n3)s2)C1` (stereo not drawn) [Example 0253, 1-(3-(5-((7-(1-Methyl-1H-pyrazol-4-yl)-1,5-naphthyridin-2-yl)amino)-1,3,4-thiadiazol-2-yl)pyrrolidin-1-yl)ethanone], for which the results for the IC50 (on human PI3Kα protein; in experiment [1]; in experiment [2]) were 1000 to 10000 nM, less than 1000 nM and less than 1000 nM, respectively.
With `Cn1cc(-c2cnc3ccc(Nc4nnc(CS(C)(=O)=O)s4)nc3c2)cn1` [Example 0257, N-(7-(1-methyl-1H-pyrazol-4-yl)-1,5-naphthyridin-2-yl)-5-((methylsulfonyl)methyl)-1,3,4-thiadiazole-2-amine], the IC50 was 1000 to 10000 nM on human PI3Kα protein, less than 1000 nM in experiment [1] and less than 1000 nM in experiment [2].
Regarding `CS(=O)(=O)Cc1nnc(Nc2ccc3ncc(-c4cnn(CCCN5CCCC5)c4)cc3n2)s1` [Example 0258], the IC50 (at human PI3Kα protein; in experiment [1]; in experiment [2]) was less than 1000 nM in each case.
On to `c1ccc(Cc2nnc(Nc3ccc4ncc(-c5cnn(CCCN6CCCC6)c5)cc4n3)s2)nc1` [Example 0261], for which the IC50 (on human PI3Kα protein; in experiment [1]; in experiment [2]) was less than 1000 nM each time.
Turning to `c1cncc(Cc2nnc(Nc3ccc4ncc(-c5cnn(CCCN6CCCC6)c5)cc4n3)s2)c1` [Example 0262], the IC50 (at human PI3Kα protein; in experiment [1]; in experiment [2]) was less than 1000 nM in each case.
With `CC(C)Cc1nnc(Nc2ccc3ncc(-c4cnn(CCCN5CCCC5)c4)cc3n2)s1` [Example 0265], the IC50 (at human PI3Kα protein; in experiment [1]; in experiment [2]) was less than 1000 nM in each case.
On to `c1cc(Cc2nnc(Nc3ccc4ncc(-c5cnn(CCCN6CCCC6)c5)cc4n3)s2)ccn1` [Example 0266], for which the IC50 (at human PI3Kα protein; in experiment [1]; in experiment [2]) was less than 1000 nM throughout.
Regarding `c1nc2ccc(Nc3nnc(CC4CCOC4)s3)nc2cc1-c1cnn(CCCN2CCCC2)c1` (stereo not drawn) [Example 0267], the IC50 (on human PI3Kα protein; in experiment [1]; in experiment [2]) was less than 1000 nM in each case.
Regarding `c1cc(-c2ccnc3ccc(Nc4nnc(CC5CCCO5)s4)nc23)ccn1` (stereo not drawn) [Example 0276], the values for the IC50 (at human PI3Kα protein; in experiment [1]; in experiment [2]) were less than 1000 nM, less than 1000 nM and 1000 to 10000 nM, respectively.
`CC(C)(C)c1cnnc(Nc2ccc3ncc(-c4cnn(CCCN5CCCC5)c4)cc3n2)c1` [Example 0290]: the IC50 (on human PI3Kα protein; in experiment [1]; in experiment [2]) was less than 1000 nM throughout.
Take `CC(C)Cc1cnnc(Nc2ccc3ncc(-c4cnn(CCCN5CCCC5)c4)cc3n2)c1` [Example 0292]: the IC50 (at human PI3Kα protein; in experiment [1]; in experiment [2]) was less than 1000 nM in each case.
On to `CCC(C)c1cnnc(Nc2ccc3ncc(-c4cnn(CCCN5CCCC5)c4)cc3n2)c1` (stereo not drawn) [Example 0294], for which the IC50 (on human PI3Kα protein; in experiment [1]; in experiment [2]) was less than 1000 nM in each case.
Consider `c1nc2ccc(Nc3cc(C4CC4)cnn3)nc2cc1-c1cnn(CCCN2CCCC2)c1` [Example 0295, N-(5-cyclopropylpyridazin-3-yl)-7-(1-(3-(pyrrolidin-1-yl)propyl)-1H-pyrazol-4-yl)-1,5-naphthyridine-2-amine], for which the IC50 (at human PI3Kα protein; in experiment [1]; in experiment [2]) was less than 1000 nM each time.
Regarding `c1nc2ccc(Nc3nnc(C4CCCC4)s3)nc2cc1-c1cnn(CCCN2CCNCC2)c1` [Example 0303, 5-cyclopentyl-N-(7-(1-(3-(piperazin-1-yl)propyl)-1H-pyrazol-4-yl)-1,5-naphthyridin-2-yl)-1,3,4-thiadiazole-2-amine], the IC50 (at human PI3Kα protein; in experiment [1]; in experiment [2]) was less than 1000 nM throughout.
For `c1nc2ccc(Nc3nnc(C4CCCC4)s3)nc2cc1N1CCOCC1` [Example 0311, 5-cyclopentyl-N-(7-morpholino-1,5-naphthyridin-2-yl)-1,3,4-thiadiazole-2-amine], the IC50 at human PI3Kα protein is 1000 to 10000 nM; in experiment [1], less than 1000 nM; in experiment [2], less than 1000 nM.
Take `CN1CCC(n2cc(-c3cnc4ccc(Nc5nnc(C6CCCC6)s5)nc4c3)cn2)CC1` [Example 0318, 5-cyclopentyl-N-(7-(1-(1-methylpiperidin-4-yl)-1H-pyrazol-4-yl)-1,5-naphthyridin-2-yl)-1,3,4-thiadiazole-2-amine]: the IC50 (on human PI3Kα protein; in experiment [1]; in experiment [2]) was less than 1000 nM throughout.
For the compound `c1nc2ccc(Nc3nnc(C4CCCC4)s3)nc2cc1-c1cnn(CCCN2CCCC2)c1` [Example 0320], the IC50 (on human PI3Kα protein; in experiment [1]; in experiment [2]) was less than 1000 nM in each case.
`C1=C(c2cnc3ccc(Nc4nnc(C5CCCC5)s4)nc3c2)CCOC1` [Example 0327]: the IC50 is 1000 to 10000 nM on human PI3Kα protein, less than 1000 nM in experiment [1] and less than 1000 nM in experiment [2].
Take `OCCN1CCC(n2cc(-c3cnc4ccc(Nc5nnc(C6CCCC6)s5)nc4c3)cn2)CC1` [Example 0336, 2-(4-(4-(6-((5-cyclopentyl-1,3,4-thiadiazol-2-yl)amino)-1,5-naphthyridin-3-yl)-1H-pyrazol-1-yl)piperidin-1-yl)ethanol]: the IC50 (at human PI3Kα protein; in experiment [1]; in experiment [2]) was less than 1000 nM in each case.
Take `OCCCN1CCC(n2cc(-c3cnc4ccc(Nc5nnc(C6CCCC6)s5)nc4c3)cn2)CC1` [Example 0337, 3-(4-(4-(6-((5-Cyclopentyl-1,3,4-thiadiazol-2-yl)amino)-1,5-naphthyridin-3-yl)-1H-pyrazol-1-yl)piperidin-1-yl)propan-1-ol]: the IC50 (at human PI3Kα protein; in experiment [1]; in experiment [2]) was less than 1000 nM throughout.
Take `COCCCn1cc(-c2cnc3ccc(Nc4nnc(C5CCCC5)s4)nc3c2)cn1` [Example 0339, 5-cyclopentyl-N-(7-(1-(3-methoxypropyl)-1H-pyrazol-4-yl)-1,5-naphthyridin-2-yl)-1,3,4-thiadiazole-2-amine]: the IC50 (at human PI3Kα protein; in experiment [1]; in experiment [2]) was less than 1000 nM each time.
In the case of `CNC(=O)CCn1cc(-c2cnc3ccc(Nc4nnc(C5CCCC5)s4)nc3c2)cn1` [Example 0342], the IC50 (at human PI3Kα protein; in experiment [1]; in experiment [2]) was less than 1000 nM each time.
Take `NC(=O)CCn1cc(-c2cnc3ccc(Nc4nnc(C5CCCC5)s4)nc3c2)cn1` [Example 0343]: the IC50 (on human PI3Kα protein; in experiment [1]; in experiment [2]) was less than 1000 nM in each case.
As for `c1nc2ccc(Nc3nnc(C4CCCC4)s3)nc2cc1-c1cnn(CCCN2CCCCC2)c1` [Example 0344, 5-cyclopentyl-N-(7-(1-(3-(piperidin-1-yl)propyl)-1H-pyrazol-4-yl)-1,5-naphthyridin-2-yl)-1,3,4-thiadiazole-2-amine], the IC50 (at human PI3Kα protein; in experiment [1]; in experiment [2]) was less than 1000 nM throughout.
In the case of `c1nc2ccc(Nc3nnc(C4CCCC4)s3)nc2cc1-c1cnn(CCCN2CCC2)c1` [Example 0345], the IC50 (on human PI3Kα protein; in experiment [1]; in experiment [2]) was less than 1000 nM throughout.
Consider `F[C@H]1CCN(CCCn2cc(-c3cnc4ccc(Nc5nnc(C6CCCC6)s5)nc4c3)cn2)C1` [Example 0346], for which the IC50 (at human PI3Kα protein; in experiment [1]; in experiment [2]) was less than 1000 nM in each case.
On to `Cn1cc(-c2cnc3ccc(Nc4nnc(C5CCCC5)s4)nc3c2Cl)cn1` [Example 0350, N-(8-chloro-7-(1-methyl-1H-pyrazol-4-yl)-1,5-naphthyridin-2-yl)-5-cyclopentyl-1,3,4-thiadiazole-2-amine], for which the figures for the IC50 (at human PI3Kα protein; in experiment [1]; in experiment [2]) were 1000 to 10000 nM, less than 1000 nM and less than 1000 nM, respectively.
Turning to `F[C@@H]1CCN(CCCn2cc(-c3cnc4ccc(Nc5nnc(C6CCCC6)s5)nc4c3)cn2)C1` [Example 0351, (R)-5-cyclopentyl-N-(7-(1-(3-(3-fluoropyrrolidin-1-yl)propyl)-1H-pyrazol-4-yl)-1,5-naphthyridin-2-yl)-1,3,4-thiadiazole-2-amine], the IC50 (at human PI3Kα protein; in experiment [1]; in experiment [2]) was less than 1000 nM each time.
Consider `FC1(F)CCN(CCCn2cc(-c3cnc4ccc(Nc5nnc(C6CCCC6)s5)nc4c3)cn2)CC1` [Example 0353], for which the IC50 (at human PI3Kα protein; in experiment [1]; in experiment [2]) was less than 1000 nM each time.
Regarding `FC1(F)CN(CCCn2cc(-c3cnc4ccc(Nc5nnc(C6CCCC6)s5)nc4c3)cn2)C1` [Example 0354], the IC50 (at human PI3Kα protein; in experiment [1]; in experiment [2]) was less than 1000 nM throughout.
`OC(CN1CCCC1)Cn1cc(-c2cnc3ccc(Nc4nnc(C5CCCC5)s4)nc3c2)cn1` (stereo not drawn) [Example 0356, 1-(4-(6-((5-Cyclopentyl-1,3,4-thiadiazol-2-yl)amino)-1,5-naphthyridin-3-yl)-1H-pyrazol-1-yl)-3-(pyrrolidin-1-yl)propan-2-ol]: the IC50 (at human PI3Kα protein; in experiment [1]; in experiment [2]) was less than 1000 nM throughout.
